Experimental data from EPA's CvTdb concentration-time database (doi:10.1093/toxsci/kfy020).

Assays:
rat [1] = assay: concentration in plasma after dosing
rat [2] = assay: concentration in brain after dosing; details: dosed: Imipramine, 10.0000000000 mg/kg, iv, male, Wistar

CCOc1ccc(NC(C)=O)cc1 [Phenacetin]
rat [1], dosed: Phenacetin, 23.0000000000 mg/kg, iv, male, Sprague-Dawley
Details	concentration in plasma [ng/mL]
0.25 h	18900
0.5 h	16100
0.75 h	12200
1 h	9020
1.5 h	6630
2 h	4320
2.5 min	26300
5 min	24300
10 min	21800

O=C1NC(=O)C(c2ccccc2)(c2ccccc2)N1 [Phenytoin]
rat [1], dosed: Phenytoin, 25.0000000000 mg/kg, iv, duration: 1 min, male, Sprague-Dawley
Details	concentration in plasma [ng/mL]
0.25 h	21500
0.5 h	15800
0.75 h	12100
1 h	8790
1 min	461000
1.5 h	4630
2 h	2480
3 h	1500
4 h	831

rat [1], dosed: Phenytoin, male
Details	concentration in plasma [ng/mL]
0.25 h, 25.0000000000 mg/kg, oral, Sprague-Dawley	4120
0.25 h, 40.0000000000 mg/kg, iv, Wistar-derived	26900
0.5 h, 25.0000000000 mg/kg, oral, Sprague-Dawley	3370
0.5 h, 40.0000000000 mg/kg, iv, Wistar-derived	19300
0.75 h, 25.0000000000 mg/kg, oral, Sprague-Dawley	2620
1 h, 25.0000000000 mg/kg, oral, Sprague-Dawley	1820
1 h, 40.0000000000 mg/kg, iv, Wistar-derived	14200
1.5 h, 25.0000000000 mg/kg, oral, Sprague-Dawley	1200
1.5 h, 40.0000000000 mg/kg, iv, Wistar-derived	11700
2 h, 25.0000000000 mg/kg, oral, Sprague-Dawley	885
2 h, 40.0000000000 mg/kg, iv, Wistar-derived	8970
2.5 h, 40.0000000000 mg/kg, iv, Wistar-derived	7190
3 h, 25.0000000000 mg/kg, oral, Sprague-Dawley	1170
3 h, 40.0000000000 mg/kg, iv, Wistar-derived	4790
3.5 h, 40.0000000000 mg/kg, iv, Wistar-derived	3020
4 h, 25.0000000000 mg/kg, oral, Sprague-Dawley	1120
4 h, 40.0000000000 mg/kg, iv, Wistar-derived	2270
5 min, 40.0000000000 mg/kg, iv, Wistar-derived	54300
6 h, 25.0000000000 mg/kg, oral, Sprague-Dawley	771
8 h, 25.0000000000 mg/kg, oral, Sprague-Dawley	759
10 h, 25.0000000000 mg/kg, oral, Sprague-Dawley	865
10 min, 40.0000000000 mg/kg, iv, Wistar-derived	33800
12 h, 25.0000000000 mg/kg, oral, Sprague-Dawley	495
20 min, 40.0000000000 mg/kg, iv, Wistar-derived	23200
40 min, 40.0000000000 mg/kg, iv, Wistar-derived	16800

COCCc1ccc(OC[C@H](O)CNC(C)C)cc1 [R-Metoprolol]
rat [1], dosed: Metoprolol, 15.0000000000 mg/kg, oral, male, Wistar
Details	concentration in plasma [ng/mL]
1 h	24.4
1.5 h	10.1
2 h	12.2
2 min	199
2.5 h	4.49
3 h	2.07
4 h	1.05
4 min	380
8 min	84.6
10 min	108
20 min	79.3
40 min	53.9
50 min	35.4

COCCc1ccc(OC[C@@H](O)CNC(C)C)cc1 [S-Metoprolol]
rat [1], dosed: Metoprolol, 15.0000000000 mg/kg, oral, male, Wistar
Details	concentration in plasma [ng/mL]
0.1 h	93.2
0.5 h	53
1 h	13.9
1.5 h	8.15
2 h	6.61
2 min	219
2.5 h	2.14
3 h	1.45
4 min	425
8 min	79.3
10 min	68.6
20 min	54.7
40 min	38.4
50 min	24.4

CCCCNC(=O)NS(=O)(=O)c1ccc(C)cc1 [Tolbutamide]
rat [1], dosed: Tolbutamide, male
Details	concentration in plasma [ng/mL]
0.25 h, 20.0000000000 mg/kg, oral, Wistar	79100
0.5 h, 20.0000000000 mg/kg, oral, Wistar	84700
1 h, 10.0000000000 mg/kg, iv, Sprague-Dawley	43400
1 h, 20.0000000000 mg/kg, oral, Wistar	85900
1.5 h, 10.0000000000 mg/kg, iv, Sprague-Dawley	38400
2 h, 10.0000000000 mg/kg, iv, Sprague-Dawley	33400
2 h, 20.0000000000 mg/kg, oral, Wistar	76400
3 h, 10.0000000000 mg/kg, iv, Sprague-Dawley	29400
4 h, 10.0000000000 mg/kg, iv, Sprague-Dawley	25300
4 h, 20.0000000000 mg/kg, oral, Wistar	52900
5 h, 10.0000000000 mg/kg, iv, Sprague-Dawley	23100
6 h, 10.0000000000 mg/kg, iv, Sprague-Dawley	19500
6 h, 20.0000000000 mg/kg, oral, Wistar	35800
8 h, 20.0000000000 mg/kg, oral, Wistar	26600
10 min, 10.0000000000 mg/kg, iv, Sprague-Dawley	64200
12 h, 20.0000000000 mg/kg, oral, Wistar	17900
20 min, 10.0000000000 mg/kg, iv, Sprague-Dawley	57100
40 min, 10.0000000000 mg/kg, iv, Sprague-Dawley	49700

CCCC(CCC)C(=O)O [Valproic acid]
concentration in plasma [ng/mL], rat [1], dosed: Valproic acid, iv, Wistar
Details	10.0000000000 mg/kg	50.0000000000 mg/kg	100.0000000000 mg/kg
0.017 h	69900	290000	511000
0.05 h	49300	256000	427000
0.083 h	36300	228000	369000
0.167 h	32000	199000	329000
0.25 h	25700	168000	290000
0.5 h	14700	120000	250000
0.75 h	9080	72500	218000
1 h	5100	42900	171000
2 h	1200	5190	43700
3 h	494	2040	4030
4 h	298	905	1600

concentration in plasma [ng/mL], rat [1], dosed: Valproic acid, oral, female, Sprague-Dawley
Details	0.25 h	0.5 h	0.75 h	1 h	2 h	4 h
200.0000000000 mg/kg	269000	333000	246000	182000	95600	23000
600.0000000000 mg/kg	558000	841000	755000	691000	643000	294000

CNCCCN1c2ccccc2CCc2ccccc21 [desmethylimipramine]
rat [2]
Details	concentration in brain [µg/g]
0.5 h	8.62
1 h	1.08
2 h	0.86
4 h	0.72
5 min	1.44
6 h	0.69
10 min	1.8

rat [1], dosed: Imipramine, 10.0000000000 mg/kg, iv, male, Wistar
Details	concentration in plasma [ng/mL]
1 h	290
2 h	370
4 h	300
5 min	440
10 min	570
